A short description of the data set: Miniaturized rotating disk dissolution and solubility of pressed pellet, biexponential fit. Type of data set: physicochemical. As to conditions: pressed pellet 3.9 mm, five replicate profiles, 180 selected points, FIG. 12. The procedure:
This example is based on the dissolution and solubility characteristics of the model drug carbamazepine, with data collected on a prototype instrument, utilizing a miniaturized rotating disk of pressed compound held as a pellet in a small stainless steel die. The average diameter of the pellets of material was measured to be 3.9 mm, corresponding to a nominal area of 0.12 cm^2, and the minimal amount of compound needed to make such pellets was about 5 mg, although more may be used. In this example, the solution volume was 15 mL, larger than the preferred volume of 3 mL. Over 1100 concentration measurements were acquired, in five replicate dissolution profiles. […] The powder “burst” would be associated with a high surface area, but would be limited to a small quantity of material: [formula] […] 2 with respect to time, evaluated at t=to, in the units of μg/min (with PABL in cm/s units), is DR^max=(Cpowder·Apowder+[…]·60 [3] The factor of 60 accounts for the conversion of ABL permeability into cm/min units. Intrinsic dissolution rate (IDR) is calculated as IDR=DR^max/Aeff, where Aeff is the effective area of the solid phase in contact with bulk solution. The effective surface area is defined as Aeff=δApowder+(1-δ)[…], where δ=[…]). The IDR is the maximum flux of material entering the solution phase through the interface solid-liquid interface (often evaluated at time near zero). […]

This is an account of results in patent US8119998B2, “Methods and systems for in situ physicochemical property testing” (Pion, Inc., priority 2008, dated 2012).

≈ marks a conversion by molar mass, not a printed value.

A word on the solubility: it is the dissolved amount per volume that the medium holds. `NC(=O)N1c2ccccc2C=Cc2ccccc21` [carbamazepine]: the “IDR (intrinsic dissolution rate)” value (nominal area 0.12 cm^2, 15 mL) was 25±1 μg/cm^2·min. For the same compound, the solubility (thermodynamic from solid, 15 mL, read-out: S (solubility)) amounted to 225 ± 6 µg/mL (≈ 952 µM).
